Data set [1] deals with T1, ERAB (L-3-hydroxyacyl-CoA dehydrogenase) (Homo sapiens, UniProt Q99714).
T1 sequence (Q99714 1-261): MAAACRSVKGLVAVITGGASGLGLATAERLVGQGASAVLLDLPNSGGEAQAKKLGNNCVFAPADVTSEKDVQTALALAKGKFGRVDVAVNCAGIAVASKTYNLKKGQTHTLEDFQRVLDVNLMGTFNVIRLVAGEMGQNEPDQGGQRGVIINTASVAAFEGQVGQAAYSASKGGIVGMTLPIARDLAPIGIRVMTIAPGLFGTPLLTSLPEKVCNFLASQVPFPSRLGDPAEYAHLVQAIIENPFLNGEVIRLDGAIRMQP
As to the kind of experiment: ERAB enzyme assay (loss of NADH absorbance at 340 nm, acetoacetyl-CoA as substrate). The following applies: 2.5 nM enzyme preincubated with inhibitor 400 seconds at 30° C., pH 7.5, 36 uM NADH, 2% DMSO; started with acetoacetyl-CoA (38 uM). It counts as biochemical. How it is done: The activity of ERAB (L-3-hydroxyacyl-CoA dehydrogenase) in the reverse direction was determined by a modified version of a method previously described (Binstock et al., Methods Enzymol., 71, 403-411 (1981)). This method is based on the enzyme-catalyzed loss of NADH absorbance at 340 nm with a change in the millimolar extinction coefficient of 6.22 mM^−1 cm^−1. The IC50 value for compounds of the Formula I were determined spectrophotometrically by monitoring the […] with acetoacetyl-CoA as substrate and are reported in Table 1. Assay conditions were 25 mM MOPS, 250 mM NaCl, 2% DMSO, 2.5 mM TCEP, pH 7.5, 30° C. NADH and ERAB were included at 40 uM and 2.5 nM, respectively. Stock solutions of ERAB, prepared in assay buffer, were 1 uM and contained 100 uM NADH for enzyme stability. The assay was run as follows: Enzyme (2.5 nM) was preincubated with inhibitor (without acetoacetyl-CoA present) for 400 seconds at 30° C. in the presence of 36 uM NADH, 25 mM MOPS, pH 7.5, 250 mM NaCl, 2%(v/v) DMSO, and 2.5 mM TCEP. The reaction was initiated by addition of substrate (acetoacetyl-CoA) (38 uM). Reduction of NADH was monitored at 340λ. Initial rates were calculated over a time frame where less than 10% of substrates had been consumed in an uninhibited reaction. For Ki, app determination, inhibitors were added during the preincubation stage from DMSO stock solutions for a final and constant 2% DMSO concentration. Initial rates were calculated and fitted, using non-linear fitting techniques, to the Michaelis equation for enzyme inhibition. The IC50 value was determined by non-linear regression analysis using KaleidaGraph (obtained from Synergy Software, Reading, Pa.).

`CC(c1ccccc1)n1cnc2[nH]ncc2c1=O` (stereo not shown) [LVII, 5-(1-Phenyl-ethyl)-1,5-dihydro-pyrazolo[3,4-d]pyrimidine-4-one] gave a melting point of 210 to 214 °C. For the same compound, the IC50 in data set [1] is 494000 nM.

For the compound `CC(c1ccccc1)n1cnc2[nH]ncc2c1=S` (stereo not shown) [LVIIIa, 5-(1-Phenyl-ethyl)-1,5-dihydro-pyrazolo[3,4-d]pyrimidine-4-thione], the melting point lay within 170 to 174 °C. In addition, in data set [1], the half-inhibitory concentration (IC50) worked out at 22000 nM.

Turning to `O=C(C(c1ccccc1)n1cnc2[nH]ncc2c1=O)N1CCCCCC1` (stereo not shown) [L], the IC50 in data set [1] was determined as 7100 nM.

`O=C(OC1CCCCC1)C(c1ccccc1)n1cnc2[nH]ncc2c1=S` (stereo not shown) [XIIa, 2-Phenyl-(4-thioxo-1,4-dihydro-pyrazolo[3,4-d]pyrimidin-5-yl)-acetic acid cyclohexyl ester]: the melting point is 170 to 173 °C. Moreover, the IC50 in data set [1] is 1200 nM.

For the compound `O=C(O)C(c1ccccc1)n1cnc2[nH]ncc2c1=S` (stereo not shown) [XIVa, 2-Phenyl-(4-thioxo-1,4-dihydro-pyrazolo [3,4-d]pyrimidin-5-yl)acetic acid], the melting point is 95 to 98 °C. Besides, the IC50 in data set [1] came to 514000 nM.

Consider `O=C(OC1CCCCC1)C(c1ccccc1)n1cnc2[nH]ncc2c1=O` (stereo not shown) [XIa, (4-Oxo-1,4-dihydro-pyrazolo[3,4-d]pyrimidin-5-yl)-phenyl-acetic acid cyclohexyl ester], for which the melting point lay in the range of 176 to 180 °C. Also, in data set [1], the IC50 worked out at 30000 nM.

As to `O=C(C(c1ccccc1)n1cnc2[nH]ncc2c1=S)N1CCCCCC1` (stereo not shown) [XVIa, 1-Azepan-1-yl-2-phenyl-2-(4-thioxo-1,4-dihydro-1,4-dihrdropyrazolo[3,4-d]pyrimidin-5-yl)-ethanone], the IC50 in data set [1] is 97 nM.

In turn, `CON(C)C(=O)C(c1ccccc1)n1cnc2[nH]ncc2c1=S` (stereo not shown) [XVIb, N-Methoxy-N-methyl-2-phenyl-2-(4-thioxo-1,4-dihydro-1,4-dihydro-pyrazolo[3,4-d]pyrimidin-5-yl)-ethanone] showed a melting point of 82 to 86 °C. The half-maximal inhibitory concentration (IC50) in data set [1] was found to be 1500 nM.

As for `O=C(C(c1ccccc1)n1cnc2[nH]ncc2c1=S)N1CCCC(O)C1` (stereo not shown) [XVIc, 1-(3-Hydroxy-piperidin-1-yl)-2-phenyl-2-(4-thioxo-1,4-dihydro-1,4-dihydro-pyrazolo[3,4-d]pyrimidin-5-yl)-ethanone], the IC50 in data set [1] was 1800 nM.

For the compound `O=C(C(c1ccccc1)n1cnc2[nH]ncc2c1=S)N1CCCCCCC1` (stereo not shown) [XVIe, 1-Azocan-1-yl-2-phenyl-2-(4-thioxo-1,4-dihydro-1,4-dihydropyrazolo[3,4-d]pyrimidin-5-yl)-ethanone], the melting point was in the range of 92 to 95 °C. In data set [1], the IC50 came out at 96 nM.

As to `O=C(C(c1ccccc1)n1cnc2[nH]ncc2c1=S)N1CCC(O)(c2ccccc2)CC1` (stereo not shown) [XVIf, 1-(4-Hydroxy-4-phenyl-piperidin-1-yl)-2phenyl-2-(4-thioxo-1,4-dihydro-1,4-dihydro-pyrazolo[3,4-d]pyrimidin-5-yl)-ethanone], the melting point is 142 to 146 °C. The IC50 in data set [1] amounted to 81 nM.

As for `O=C(C(c1ccccc1)n1cnc2[nH]ncc2c1=S)N1CCC(O)(c2ccc(Br)cc2)CC1` (stereo not shown) [XVIg], the melting point is 155 to 160 °C. Besides, in data set [1], the IC50 is 82 nM.

Regarding `CC(=O)C1(c2ccccc2)CCN(C(=O)C(c2ccccc2)n2cnc3[nH]ncc3c2=S)CC1` (stereo not shown) [XVIh, 1-(4-Acetyl-4-phenyl-piperidin-1-yl)-2-phenyl-2-(4-thioxo-1,4-dihydro-pyrazolo[3,4-d]pyrimidin-5-yl)-ethanone], the IC50 in data set [1] came to 766 nM.

Turning to `O=C(C(c1ccccc1)n1cnc2[nH]ncc2c1=S)N1CCN(c2ccccn2)CC1` (stereo not shown) [XVIi, 2-Phenyl-1-(4-pyridin-2-yl-piperazin-1-yl)-2-(4-thioxo-1,4-dihydro-pyrazolo[3,4-d]pyrimidin-5-yl)-ethanone], the melting point is 242 to 246 °C. The IC50 in data set [1] amounted to 389 nM.

`O=C(C(c1ccccc1)n1cnc2[nH]ncc2c1=S)N1CCN(c2ccccc2)CC1` (stereo not shown) [XVIj, 2-Phenyl-1-(4-phenyl-2-yl-piperazin-1-yl)-2-(4-thioxo-1,4-dihydro-pyrazolo[3,4-d]pyrimidin-5-yl)-ethanone] came in with a melting point of 241 to 245 °C. In addition, in data set [1], the IC50 is 218 nM.

Consider `COc1ccc(N2CCN(C(=O)C(c3ccccc3)n3cnc4[nH]ncc4c3=S)CC2)cc1` (stereo not shown) [XVIk, 1-[4-(4-Methoxy-phenyl)-piperazin-1-yl]-2-phenyl-2-(4-thioxo-1,4-dihydro-pyrazolo[3,4-d]pyrimidin-5-yl)-ethanone], for which the melting point lay in the range of 114 to 118 °C. Moreover, the IC50 in data set [1] amounted to 300 nM.

`O=C(C(c1ccccc1)n1cnc2[nH]ncc2c1=S)N1CCC(O)(c2ccccn2)CC1` (stereo not shown) [XVIm, 1-(4-Hydroxy-3′,4′,5′,6′-tetrahydro-2H-[2,4]bipyridinyl-1′-yl]-2-phenyl-2-(4-thioxo-1,4-dihydro-pyrazolo[3,4-d]pyrimidin-5-yl)-ethanone] yielded a melting point of 138 to 142 °C. In addition, the IC50 in data set [1] came to 279 nM.

Consider `CCCCC1(O)CCN(C(=O)C(c2ccccc2)n2cnc3[nH]ncc3c2=S)CC1` (stereo not shown) [XVIn, 1-(4-Butyl-4-hydroxy-piperidin-1-yl)-2-phenyl-2-(4-thioxo-1,4-dihydro-pyrazolo[3,4-d]pyrimidin-5-yl)-ethanone], for which the melting point lay in the range of 98 to 102 °C.

On to `CC1(O)CCN(C(=O)C(c2ccccc2)n2cnc3[nH]ncc3c2=S)CC1` (stereo not shown) [XVIp, 1-(4-Methyl-4-hydroxy-piperidin-1-yl)-2-phenyl-2-(4-thioxo-1,4-dihydro-pyrazolo[3,4-d]pyrimidin-5-yl)-ethanone], for which the melting point was in the range of 140 to 144 °C. Besides, the IC50 in data set [1] is 210 nM.

For `CCN(C(=O)C(c1ccccc1)n1cnc2[nH]ncc2c1=S)C(C)C` (stereo not shown) [XVIq, N-Ethyl-N-isopropyl-2-phenyl-2-(4-thioxo-1,4-dihydro-pyrazolo[3,4d]pyrimidin-5-yl)-acetamide], the IC50 in data set [1] stood at 2800 nM.

`CCN(CC)C(=O)C(c1ccccc1)n1cnc2[nH]ncc2c1=S` (stereo not shown) [XVIr, N,N-Diethyl-2-phenyl-2-(4-thioxo-1,4-dihydro-pyrazolo[3,4-d]pyrimidin-5-yl)-acetamide] had a melting point of 143 to 146 °C. Further, the half-inhibitory concentration (IC50) in data set [1] turned out to be 93 nM.

Take `C=CCOc1cccc(C(C(=O)N2CCC(O)(c3ccccc3)CC2)n2cnc3[nH]ncc3c2=S)c1` (stereo not shown) [XVIs, 2-(3-Allyoxy-phenyl)-1-(4-hydroxy-4-phenyl-piperidin-1-yl)-2-(4-thioxo-1,4-dihydro-pyrazolo[3,4-d]pyrimidin-5-yl)-ethanone]: the melting point fell in the range of 116 to 120 °C. Moreover, the IC50 in data set [1] was 406 nM.

Regarding `C=CCOc1cccc(C(C(=O)N2CCCCCC2)n2cnc3[nH]ncc3c2=S)c1` (stereo not shown) [XVIt, 2-(3-Allyoxy-phenyl)-1-azepan-1-yl-2-(4-thioxo-1,4-dihydro-pyrazolo[3,4-d]pyrimidin-5-yl)-ethanone], the melting point lay in the range of 75 to 80 °C. Moreover, the IC50 in data set [1] was found to be 345 nM.

For `C=CCOc1cccc(C(C(=O)OC2CCCCC2)n2cnc3[nH]ncc3c2=S)c1` (stereo not shown) [XXIII], in data set [1], the IC50 was found to be 11000 nM.

For the compound `O=C(C(c1ccccc1)n1cnc2[nH]ncc2c1=S)N1CCCCC1` (stereo not shown) [XXVa], the IC50 in data set [1] stood at 774 nM.

`O=C(C(c1ccccc1)n1cnc2[nH]ncc2c1=S)N1CCC(c2ccccc2)CC1` (stereo not shown) [XXVb]: in data set [1], the half-maximal inhibitory concentration (IC50) was 216 nM.

For `O=C(C(c1cccc(O)c1)n1cnc2[nH]ncc2c1=S)N1CCCCCC1` (stereo not shown) [XXVc], in data set [1], the half-maximal inhibitory concentration (IC50) was found to be 51 nM.

Take `CCCCC1(O)CCN(C(=O)C(c2ccccc2)n2cnc3[nH]ncc3c2=S)CC1` (stereo not shown) [XXVd]: in data set [1], the IC50 worked out at 71 nM.

As to `CN(C(=O)C(c1ccccc1)n1cnc2[nH]ncc2c1=S)c1ccccc1` (stereo not shown) [XXVe], the IC50 in data set [1] turned out to be 749 nM.

Broadly, the IC50 is the midpoint of a concentration-inhibition curve. For orientation: melting point means the temperature of the solid-liquid transition.

(Values after US6964957B2, “Fused pyrazole compounds, pharmaceutical compositions, and methods for modulating or inhibiting ERAB or HADH2 activity” (Agouron Pharmaceuticals, Inc., priority 2000, dated 2005).)
